Results from publication PMC3681555, “PPARγ as a sensor of lipase activity and a target for the lipase inhibitor orlistat” (Lipids in Health and Disease, 2013).
pIC50: −log10 of the molar value.

Assays:
[1] = target: T1, PPARγ (Homo sapiens, UniProt P37231); assay: intact-protein LC-ESI-MS, covalent control (data not shown); assay type: binding
T1 construct: gene PPARG
T1 sequence (P37231 235-505 limits assumed): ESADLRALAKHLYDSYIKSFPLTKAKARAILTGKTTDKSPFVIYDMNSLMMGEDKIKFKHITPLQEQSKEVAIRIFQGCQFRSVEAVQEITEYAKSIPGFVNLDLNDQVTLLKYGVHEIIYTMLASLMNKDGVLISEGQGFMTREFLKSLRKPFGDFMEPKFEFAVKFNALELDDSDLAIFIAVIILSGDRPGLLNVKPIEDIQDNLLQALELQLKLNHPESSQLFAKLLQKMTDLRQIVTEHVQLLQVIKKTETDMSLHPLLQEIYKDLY

[2] = target: T1, PPARγ; assay: competitive fluorescence polarization (PolarScreen PPARγ green kit); LC-MS shows no covalent adduct; assay type: binding

pIC50 [2] | SMILES | intact-protein LC-ESI-MS, covalent control (data not shown) [1]
– | O=C(Nc1ccccc1)c1cc([N+](=O)[O-])ccc1Cl [GW9662] | Dithio-bis (2-nitrobenzoic acid) and GW9662, were also confirmed bind to PPARγ irreversibly (data not shown)
5.55 | CCCCCCCCCCC[C@@H](C[C@@H]1OC(=O)[C@H]1CCCCCC)OC(=O)[C@H](CC(C)C)NC=O [Orlistat] | –
